The IC50 is the concentration needed to halve the response being measured.

In assay [1] the target is T1, complement C5a receptor 1 (C5aR1) (Homo sapiens, UniProt P21730).
T1 construct: β-galactosidase fragment (PathHunter enzyme complementation); host or cells: CHO-K1 (PathHunter CHO-K1 C5aR1 β-arrestin cell line)
T1 sequence (P21730 1-350): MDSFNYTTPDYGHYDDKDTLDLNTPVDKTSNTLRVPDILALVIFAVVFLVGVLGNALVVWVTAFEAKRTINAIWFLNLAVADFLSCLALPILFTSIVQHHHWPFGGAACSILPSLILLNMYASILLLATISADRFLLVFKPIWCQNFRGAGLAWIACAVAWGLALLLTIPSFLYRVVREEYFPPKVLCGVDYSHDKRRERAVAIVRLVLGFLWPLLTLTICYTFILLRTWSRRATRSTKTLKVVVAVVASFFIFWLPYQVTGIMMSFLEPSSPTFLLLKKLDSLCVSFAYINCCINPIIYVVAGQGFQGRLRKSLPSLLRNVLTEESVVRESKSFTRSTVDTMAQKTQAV
Kind of assay: β-arrestin recruitment via C5aR1 activation in live CHO-K1 cells (PathHunter), antagonist mode. As to conditions: antagonist mode; recombinant hC5a (EC90) as competing natural agonist; live CHO-K1 cells; read-out: [Antagonist] B-arrestin2 recruitment: Average IC50; call rule not given here. The assay is classed as cell-based. The method in brief:
(§1)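 β-arrestin recruitment to C5aR1 in CHO-K1 cells is detected by enzyme-fragment complementation. Antagonism is measured against recombinant hC5a at its EC90; agonism is measured with compound alone. Potencies are grouped into IC50 categories.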
For orientation: Arrestin recruitment assays detect the binding of arrestin to an activated receptor.

In assay [2] the target is T1, complement C5a receptor 1 (C5aR1). Description: β-arrestin recruitment via C5aR1 activation in live CHO-K1 cells (PathHunter), agonist mode. The assay is classed as cell-based. The method in brief:
as §1

Where two headings read alike, the source gives them in different places.

For the compound `Cc1cccc(F)c1N1CCC(c2cc3nccnc3n([C@H]3CCCc4nccnc43)c2=O)CC1` [43b, (S)-7-(1-(2-Fluoro-6-methylphenyl)piperidin-4-yl)-5-(5,6,7,8-tetrahydroquinoxalin-5-yl)pyrido[2,3-b]pyrazin-6(5H)-one], the IC50 in assay [1] fell in the range of 500 to 5000 nM. The “[Agonist] B-arrestin2 recruitment: Average EC50 (nM)” value (from here on “[Agonist] B-arrestin2 recruitment”) in assay [2] is recorded as “Non-Active”.
As to `COc1nccnc1N1CCC(c2cc3nccnc3n(Cc3ccccc3C(F)(F)F)c2=O)CC1` [compound 9, 7-(1-(3-Methoxypyrazin-2-yl)piperidin-4-yl)-5-(2-(trifluoromethyl)benzyl)pyrido[2,3-b]pyrazin-6(5H)-one], the IC50 in assay [1] was in the range of 5000 to 100000 nM. Besides, in assay [2], the “[Agonist] B-arrestin2 recruitment” value is listed as “Non-Active”.
Consider `Cc1cccc(F)c1[C@H]1CC[C@@H](c2cc3nccnc3n(Cc3ncccc3C(F)(F)F)c2=O)C1` [200C, 7-((1R,3S)-3-(2-Fluoro-6-methylphenyl)cyclopentyl)-5-((3-(trifluoromethyl)pyridin-2-yl)methyl)pyrido[2,3-b]pyrazin-6(5H)-one], for which, in assay [1], the IC50 was in the range of 500 to 5000 nM. Moreover, the “[Agonist] B-arrestin2 recruitment” value in assay [2] (at 10 μM) is “Non-Active at 10 μM”.
For `O=c1c(C2CCN(c3cccnc3F)CC2)cc2nccnc2n1Cc1ncccc1C(F)(F)F` [compound 72, 7-(1-(2-Fluoropyridin-3-yl)piperidin-4-yl)-5-((3-(trifluoromethyl)pyridin-2-yl)methyl) pyrido[2,3-b]pyrazin-6(5H)-one], in assay [1], the IC50 was above 100000 nM. In assay [2], the “[Agonist] B-arrestin2 recruitment” value is “Non-Active”.
The matching figures for `Cc1cccc(F)c1N1CC(c2cc3nccnc3n(Cc3ncccc3C(F)(F)F)c2=O)C1` [compound 48, 7-(1-(2-Fluoro-6-methylphenyl)azetidin-3-yl)-5-((3-(trifluoromethyl)pyridin-2-yl)methyl)pyrido[2,3-b]pyrazin-6(5H)-one]: 500 to 5000 nM and “Non-Active”.
For `COc1nccc(C)c1[C@H]1CC[C@H](c2cc3ncc(C)nc3n(Cc3ncccc3C(F)(F)F)c2=O)CC1` [compound 230, 7-((1r,4r)-4-(2-Methoxy-4-methylpyridin-3-yl)cyclohexyl)-3-methyl-5-((3-(trifluoromethyl)pyridine-2-yl)methyl)pyrido[2,3-b]pyrazin-6(5H)-one], the IC50 in assay [1] was below 500 nM. Also, the “[Agonist] B-arrestin2 recruitment” value in assay [2] (at 10 μM) is “Non-Active at 10 μM”.
Regarding `Cc1cccc(F)c1N1CCC(c2cc3nccnc3n(Cc3ncccc3OC(F)(F)F)c2=O)CC1` [compound 87, 7-(1-(2-Fluoro-6-methylphenyl)piperidin-4-yl)-5-((3-(trifluoromethoxy)pyridin-2-yl)methyl)pyrido[2,3-b]pyrazin-6(5H)-one], the IC50 in assay [1] is below 500 nM. The “[Agonist] B-arrestin2 recruitment” value in assay [2] is recorded as “Non-Active”.
The matching figures for `Cc1c(C2CCN(c3ccccc3C(F)(F)F)CC2)c(=O)n(Cc2ccccc2F)c2nccnc12` [compound 7, 5-(2-Fluorobenzyl)-8-methyl-7-(1-(2-(trifluoromethyl)phenyl)piperidin-4-yl)pyrido[2,3-b]pyrazin-6(5H)-one]: below 500 nM and “Non-Active”.
Turning to `Cc1cnc2cc([C@H]3CC[C@H](c4ncsc4C)CC3)c(=O)n(Cc3ncccc3OC(F)(F)F)c2n1` [compound 166, 3-Methyl-7-((1r,4r)-4-(5-methylthiazol-4-yl)cyclohexyl)-5-((3-(trifluoromethoxy)pyridin-2-yl)methyl)pyrido[2,3-b]pyrazin-6(5H)-one], in assay [1], the IC50 was below 500 nM. For the same compound, the “[Agonist] B-arrestin2 recruitment” value in assay [2] (at 10 μM) is given as “Non-Active at 10 μM”.
On to `COc1nccnc1Cn1c(=O)c(C2CCN(c3c(C)cccc3F)CC2)cc2nccnc21` [compound 5, 7-(1-(2-Fluoro-6-methylphenyl)piperidin-4-yl)-5-((3-methoxypyrazin-2-yl)methyl)pyrido[2,3-b]pyrazin-6(5H)-one], for which the IC50 in assay [1] lay within 500 to 5000 nM. Besides, in assay [2], the “[Agonist] B-arrestin2 recruitment” value is reported as “Non-Active”.
Consider `Cc1cnc2cc([C@H]3CC[C@H](c4c(F)cccc4F)CC3)c(=O)n(Cc3ncccc3OC(F)(F)F)c2n1` [compound 209, 7-((1r,4r)-4-(2,6-Difluorophenyl)cyclohexyl)-3-methyl-5-((3-(trifluoromethoxy)pyridin-2-yl)methyl)pyrido[2,3-b]pyrazin-6(5H)-one], for which, in assay [1], the IC50 is below 500 nM. Further, in assay [2] (at 10 μM), the “[Agonist] B-arrestin2 recruitment” value is recorded as “Non-Active at 10 μM”.
The matching figures for `Cc1cnc2cc([C@H]3CC[C@H](c4c(C)cccc4F)CC3)c(=O)n([C@@H]3CCC(F)(F)c4nccnc43)c2n1` [174B, 5-((R)-8,8-Difluoro-5,6,7,8-tetrahydroquinoxalin-5-yl)-7-((1r,4R)-4-(2-fluoro-6-methylphenyl)cyclohexyl)-3-methylpyrido[2,3-b]pyrazin-6(5H)-one]: 500 to 5000 nM and “Non-Active at 10 μM”.
Regarding `Cc1cnc2cc([C@H]3CC[C@H](c4c(C)cccc4F)CC3)c(=O)n(Cc3ncccc3C(F)F)c2n1` [compound 176, 5-((3-(Difluoromethyl)pyridin-2-yl)methyl)-7-((1r,4r)-4-(2-fluoro-6-methylphenyl)cyclohexyl)-3-methylpyrido[2,3-b]pyrazin-6(5H)-one], the half-maximal inhibitory concentration (IC50) in assay [1] was below 500 nM. Moreover, the “[Agonist] B-arrestin2 recruitment” value in assay [2] is reported as “Non-Active”.
The matching figures for `Cc1cnc2cc(C3CCN(c4c(C)cccc4F)CC3)c(=O)n(Cc3nccnc3C(F)(F)F)c2n1` [compound 25, 7-(1-(2-Fluoro-6-methylphenyl)piperidin-4-yl)-3-methyl-5-((3-(trifluoromethyl)pyrazin-2-yl)methyl)pyrido[2,3-b]pyrazin-6(5H)-one]: below 500 nM and “Non-Active”.
In the case of `Cc1cnc2cc([C@@H]3CC[C@H](c4c(C)cccc4F)C3)c(=O)n(Cc3ncccc3C(F)F)c2n1` [187C, 5-((3-(Difluoromethyl)pyridin-2-yl)methyl)-7-((1R,3S)-3-(2-fluoro-6-methylphenyl)cyclopentyl)-3-methylpyrido[2,3-b]pyrazin-6(5H)-one], in assay [1], the IC50 is below 500 nM. For the same compound, the “[Agonist] B-arrestin2 recruitment” value in assay [2] (at 10 μM) is listed as “Non-Active at 10 μM”.
For the compound `Cc1cnc2cc(C3CCN(c4cnccc4C(F)F)CC3)c(=O)n(Cc3ncccc3C(F)(F)F)c2n1` [compound 162, 7-(1-(4-(Difluoromethyl)pyridin-3-yl)piperidin-4-yl)-3-methyl-5-((3-(trifluoromethyl)pyridin-2-yl)methyl)pyrido[2,3-b]pyrazin-6(5H)-one], in assay [1], the IC50 is below 500 nM. In addition, the “[Agonist] B-arrestin2 recruitment” value in assay [2] is “Non-Active”.
Regarding `COc1cnc2cc(C3CCN(c4c(C)cccc4F)CC3)c(=O)n(Cc3ccccc3C(F)(F)F)c2n1` [compound 58, 7-(1-(2-Fluoro-6-methylphenyl)piperidin-4-yl)-3-methoxy-5-(2-(trifluoromethyl)benzyl)pyrido[2,3-b]pyrazin-6(5H)-one], the IC50 in assay [1] fell in the range of 500 to 5000 nM. Also, in assay [2], the “[Agonist] B-arrestin2 recruitment” value is “Non-Active”.
Turning to `O=c1c(C2CCN(c3cnccc3C(F)(F)F)CC2)cc2nccnc2n1Cc1nccnc1C(F)(F)F` [compound 70, 5-((3-(Trifluoromethyl)pyrazin-2-yl)methyl)-7-(1-(4-(trifluoromethyl)pyridin-3-yl)piperidin-4-yl)pyrido[2,3-b]pyrazin-6(5H)-one], in assay [1], the IC50 lay in the range of 500 to 5000 nM. For the same compound, the “[Agonist] B-arrestin2 recruitment” value in assay [2] was “Non-Active”.
Take `Cc1cccc(F)c1N1CCC(c2cc3nccnc3n(Cc3ccc(C(F)(F)F)nc3)c2=O)CC1` [compound 14, 7-(1-(2-Fluoro-6-methylphenyl)piperidin-4-yl)-5-((6-(trifluoromethyl)pyridin-3-yl)methyl)pyrido[2,3-b]pyrazin-6(5H)-one]: the IC50 in assay [1] was above 100000 nM. Further, in assay [2], the “[Agonist] B-arrestin2 recruitment” value was “Non-Active”.
As for `Cc1cccc(F)c1[C@@H]1CC[C@@H](c2cc3nccnc3n(Cc3ncccc3C(F)(F)F)c2=O)C1` [200D, 7-((1R,3R)-3-(2-Fluoro-6-methylphenyl)cyclopentyl)-5-((3-(trifluoromethyl)pyridin-2-yl)methyl)pyrido[2,3-b]pyrazin-6(5H)-one], the half-maximal inhibitory concentration (IC50) in assay [1] was below 500 nM. Moreover, in assay [2] (at 10 μM), the “[Agonist] B-arrestin2 recruitment” value is reported as “Non-Active at 10 μM”.
The matching figures for `Cc1cccc(F)c1N1CCC(c2nc3ccccc3n(Cc3ncccc3C(F)(F)F)c2=O)CC1` [compound 139, 3-(1-(2-Fluoro-6-methylphenyl)piperidin-4-yl)-1-((3-(trifluoromethyl)pyridin-2-yl)methyl)quinoxalin-2(1H)-one]: above 100000 nM and “Non-Active at 10 μM”.
The matching figures for `Cc1ccc2cc([C@H]3CC[C@H](c4cnccc4C(F)(F)F)CC3)c(=O)n(Cc3ncccc3C(F)(F)F)c2n1` [compound 251, 7-Methyl-1-((3-(trifluoromethyl)pyridin-2-yl)methyl)-3-((1r,4r)-4-(4-(trifluoromethyl)pyridin-3-yl)cyclohexyl)-1,8-naphthyridin-2(1H)-one]: below 500 nM and “Non-Active at 10 μM”.

For the origin of these results see patent US20260317320A1, “C5AR1 ANTAGONISTS AND USES THEREOF” (Vanqua Bio, Inc., priority 2022, published 2026).
